According to patent publication US8178506B2, “Oligomeric compounds and compositions for use in modulation of small non-coding RNAs” (Regulus Therapeutics Inc., priority 2003, dated 2012):
In the oligonucleotide strings, read from the 5' end, every base follows the letter of its sugar. An asterisk marks phosphorothioate; unmarked linkages are phosphodiester. Other units and linkages are bracketed, terminal groups are in braces. A string of capitals states the bases alone. e = 2'-O-(2-methoxyethyl) (MOE); [5mC] = 5-methylcytosine

How the values were obtained:
Format in all cases: cell-based, human
mir-143 binding sites = experiment: pGL3-mir-143 sensor luciferase assay in HeLa cells; details: for Relative luciferase activity / luciferase expression (% lucif. only control): HeLa cells; for Relative luciferase activity: pGL3-mir-143 sensor with pCR3-pri-mir-143 (430); for luciferase expression (% lucif. only control): pGL3-mir-143 sensor
Excerpt: (§1) In one embodiment, an expression system based on the pGL3-Control (Promega Corp., Madison Wis.) vector containing a CMV promoter controlling expression of a luciferase reporter sequence was used in transient transfections of HeLa cells with plasmids expressing miRNA or pri-miRNA mimics. To assess the ability of miRNA mimics to bind and regulate the expression of the luciferase reporter gene, two reporter plasmids were constructed: 1) a synthetic DNA fragment comprising two sites perfectly complementary to mir-143 were inserted into the pGL3-Control luciferase reporter vector, to create the pGL3-mir-143 sensor plasmid, and 2) a DNA fragment comprising the 3′-UTR of the LIM domain only 4 (LMO4) gene (predicted to be regulated by mir-143) was inserted into pGL3-Control to create pGL3-LMO4; this fragment was PCR-amplified using a primer beginning at position 1261 of the LMO4 sequence (GenBank Accession NM_006769.2, incorporated herein as SEQ ID: 809) and the downstream primer hybridizing to the poly-A tail. In each of these plasmids, the target site was placed downstream of the luciferase coding sequence and upstream of the polyadenylation signal in the 3′-UTR of the luciferase reporter vector. The unmodified pGL3-Control luciferase reporter vector was used as a control.
(§2) HeLa cells were routinely cultured and passaged as described, and on the day before transfection with expression or reporter plasmids, the HeLa cells were seeded onto 24-well plates 50,000 cells/well. Cells were transfected according to standard published procedures with various combinations of plasmids using 2 μg Lipofectamine™ 2000 Reagent (Invitrogen) per μg of plasmid DNA, or, when transfecting oligomeric compounds, 1.25 μg of Lipofectamine™ 2000 Reagent per 100 nM oligonucleotide or double-stranded RNA. The luciferase signal in each well was normalized to the Renilla luciferase (RL) activity produced from a co-transfected plasmid, pRL-CMV, which was transfected at 0.5 μg per well. Cells were treated at various dosages (4 nM, 20 nM, and 100 nM) with the following oligomeric compound mimics: 1) “ds-mir-143,” 2) “ds-Control,” 3) “pCR3-pri-mir-143,” or 4) “pri-mir-control,” as described supra. In accordance with methods described in Example 12, supra, a luciferase assay was performed 48-hours after transfection. Briefly, cells were lysed in passive lysis buffer (PLB; Promega), and 20 ul of the lysate was then assayed for RL activity using a Dual Luciferase Assay kit (Promega) according to the manufacturer's protocol. The results below are an average of three trials and are presented as percent pGL3-Control luciferase expression normalized to pRL-CMV expression (RL).
In another embodiment, HeLa cells were transfected with 0.03 μg pGL3-mir-143 sensor plasmid and 0.01 μg pRL-CMV plasmid, and, in addition, (except those samples described below as “without mir-143 pri-miRNA,”) were also transfected with 0.01 μg of an expression plasmid designed to express a mir-143 pri-miRNA mimic comprising a larger 430-nt fragment of the mir-143 primary miRNA transcript, referred to as “pCR3-pri-mir-143 (430)” ([…]; SEQ ID NO: 871). […] To further evaluate the ability of the mir-143 pri-miRNA mimic to inhibit luciferase activity from the sensor plasmid, and to assess the ability of oligomeric compounds to interfere with the inhibition of pGL3-mir-143 sensor luciferase expression by the mir-143 pri-miRNA mimic, pGL3-mir-143 sensor-expressing HeLa cells treated with pCR3-pri-mir-143 (430) were additionally treated with varying concentrations (0-, 6.7- or 20 nM) of the following oligomeric compounds: 1) ISIS Number 327901 (SEQ ID NO: 319), a uniform 2′-MOE oligomeric compound targeting mir-143; 2) ISIS Number 342673 (SEQ ID NO: 758), a uniform 2′-MOE scrambled control; or 3) ISIS Number 327924 (SEQ ID NO: 342) targeting an unrelated miRNA (mir-129-2). […]

[1] = system: 3′-UTR of the LIM domain only 4 (LMO4) gene; experiment: pGL3-LMO4 luciferase assay in HeLa cells; details: 48 hours
Excerpt: as §1
HeLa cells were routinely cultured and passaged as described, and on the day before transfection with expression or reporter plasmids, the HeLa cells were seeded onto 24-well plates 50,000 cells/well. Cells were transfected according to standard published procedures with various combinations of plasmids using 2 μg Lipofectamine™ 2000 Reagent (Invitrogen) per μg of plasmid DNA, or, when transfecting oligomeric compounds, 1.25 μg of Lipofectamine™ 2000 Reagent per 100 nM oligonucleotide or double-stranded RNA. The luciferase signal in each well was normalized to the Renilla luciferase (RL) activity produced from a co-transfected plasmid, pRL-CMV, which was transfected at 0.5 μg per well. […]

[2] = system: pGL3-Control luciferase reporter; experiment: pGL3-Control luciferase assay in HeLa cells (reporter without miRNA binding site); details: for luciferase expression: 24 hours; for luciferase expression (% lucif. only control): pGL3-Control, 48 hours
Excerpt: as §1, §2
An expression system based on the pGL3-Control (Promega Corp., Madison Wis.) reporter vector and comprising predicted miRNA binding sites was used in transient transfections of HeLa cells with plasmids expressing oligomeric compounds mimicking miRNAs, pre-miRNAs or pri-miRNAs in order to assess the ability of these miRNA mimics to bind and regulate the expression of the luciferase reporter. The effect of increasing the copy number of the miRNA-binding site in the target was also tested by including multiple binding sites in artificial reporter constructs. It is understood that the presence of multiple miRNA-binding sites in a target can include binding sites for different miRNAs.
HeLa cells were routinely cultured and passaged as described. In some embodiments, HeLa cells were transfected with 0.05 μg of the relevant pGL3-sensor plasmid and 0.01 μg pRL-CMV plasmid. Additionally, in some embodiments, cells were treated at various dosages (11 nM, 33 nM, and 100 nM) with the following oligomeric compound mimics: 1) ds-mir-143, or 2) ds-Control as described. In accordance with methods described in Example 12, a luciferase assay was performed 24-hours after transfection. The results, shown in Tables 40 and 41, are an average of three trials. […]

Substance: 327924 (antisense eG*e[5mC]*eA*eA*eG*e[5mC]*e[5mC]*e[5mC]*eA*eG*eA*e[5mC]*e[5mC]*eG*e[5mC]*eA*eA*eA*eA*eA*eG) [compound 327924]
- Relative luciferase activity (mir-143 binding sites; 6.7 nM): 0.8
- Relative luciferase activity (mir-143 binding sites; 20 nM): 1.2

Substance: ds-mir-143: double-stranded RNA of ISIS 342199 hybridized to its perfect complement ISIS 342200 (sense UGAGAUGAAGCACUGUAGCUCA; antisense UGAGCUACAGUGCUUCAUCUCA; RNA, backbone not given here)
- luciferase expression (% lucif. only control) ([1]; 4 nM): 151.6 % lucif. only control
- luciferase expression (% lucif. only control) ([1]; 20 nM): 140.1 % lucif. only control
- luciferase expression (% lucif. only control) ([1]; 100 nM): 128.4 % lucif. only control
- luciferase activity from the pGL3-mir-143 sensor plasmid (mir-143 binding sites; HeLa, 4 nM, 20 nM and 100 nM, 48 hours): inhibited luciferase activity from the pGL3-mir-143 sensor plasmid in a dose-dependent manner
- luciferase expression (% lucif. only control) (mir-143 binding sites; 4 nM, 48 hours): 14.5 % lucif. only control
- luciferase expression (% lucif. only control) (mir-143 binding sites; 20 nM, 48 hours): 8.0 % lucif. only control
- luciferase expression (% lucif. only control) (mir-143 binding sites; 100 nM, 48 hours): 7.1 % lucif. only control
- luciferase expression ([2]; Table 40, pGL3-Control, 11 nM): 90.7 percent untreated control
- luciferase expression ([2]; Table 40, pGL3-Control, 33 nM): 94.2 percent untreated control
- luciferase expression ([2]; Table 40, pGL3-Control, 100 nM): 72.5 percent untreated control
- luciferase expression ([2]; Table 41, pGL3-Control, 11 nM): 110.2 percent untreated control
- luciferase expression ([2]; Table 41, pGL3-Control, 33 nM): 124.3 percent untreated control
- luciferase expression ([2]; Table 41, pGL3-Control, 100 nM): 92.3 percent untreated control
- luciferase expression (% lucif. only control) ([2]; 4 nM): 101.5 % lucif. only control
- luciferase expression (% lucif. only control) ([2]; 20 nM): 123.8 % lucif. only control
- luciferase expression (% lucif. only control) ([2]; 100 nM): 131.8 % lucif. only control
